Reference: patent US20010024657A1, “Pharmaceutical oral patch for controlled release of pharmaceutical agents in the oral cavity” (priority 1997, published 2001)
“Also recorded” adds a separate entry of the source.

How the values were obtained:
[1] = In vivo release of clotrimazole from patches on the upper teeth, measured in saliva of volunteers; parameters: species or system human; conditions: total dose of 10 mg clotrimazole from patches
Protocol: Each volunteer attached two pharmaceutical oral patches of 5 mg clotrimazole to the buccal side of the upper teeth. No food or drink was allowed during the tests. Saliva samples were expectorated at given time intervals and tested for clotrimazole by HPLC. The patch was affixed to the tooth by using a drop of a solution of Eudragit S™ in ethanol.
The in vivo release from the patches made from three formulations of differing molar ratios of NaOH were tested in vivo. Formulation 193-5 has a low level of NaOH (percent molar ratio of 11.5%) and the patch made therefrom is expected to release drug even more slowly than the patch made from formulation 193-34.

[2] = cited from earlier work; for solubility in buffer (in words): neutral to slightly basic, pH 7-8, high buffering capacity

## Clc1ccccc1C(c1ccccc1)(c1ccccc1)n1ccnc1 [clotrimazole, Clotrimazole]
[1]
  time of clinically significant levels of clotrimazole in saliva: at least 6 hours
[2]
  solubility in water (in words): poorly water soluble

## CC(C(=O)O)c1ccc(-c2ccccc2)c(F)c1 (stereo not drawn) [flurbiprofen]
[2]
  solubility in buffer (in words): soluble in buffer
  solubility in water (in words): poorly soluble in water; also recorded: only slightly soluble

## O=C([O-])c1ccccc1O.[Na+] [sodium salicylate]
[2]
  solubility in buffer (in words): very soluble
  solubility in water (in words): very soluble
